This is an account of results in patent publication US20140274688A1, “MOLECULES HAVING CERTAIN PESTICIDAL UTILITIES, AND INTERMEDIATES, COMPOSITIONS, AND PROCESSES RELATED THERETO” (DOW AGROSCIENCES LLC, priority 2013, published 2014).

The structures appear in SMILES notation.

Series [1] concerns Beet Armyworm (Spodoptera exigua) ("BAW"). The series is described as follows: Bioassay on Beet Armyworm (BAW), 128-well diet tray assay, percent mortality. The series is classed as in vivo. The note with it: for BAW rating (percent mortality class): Beet Armyworm, 128-well diet tray assay. The source says: (§1) Bioassays on Beet Armyworm (Spodoptera exigua) (“BAW”) and Cabbage Looper (Trichoplusia ni) (“CL”)
(§2) BAW has few effective parasites, diseases, or predators to lower its population. BAW infests many weeds, trees, grasses, legumes, and field crops. In various places, it is of economic concern upon asparagus, cotton, corn, soybeans, tobacco, alfalfa, sugar beets, peppers, tomatoes, potatoes, onions, peas, sunflowers, and citrus, among other plants. The Cabbage Looper is a member of the moth family Noctuidae. It is found throughout the world. It is attacks cabbage, cauliflower, broccoli, Brussel sprouts, tomatoes, cucumbers, potatoes, kale, turnips, mustard, peppers, eggplant, watermelons, melons, squash, cantaloupe, peas, beans, collards, lettuce, spinach, celery, parsley, beets, peas, alfalfa, soybeans, and cotton. This species is very destructive to plants due to its voracious consumption of leaves. In the case of cabbage, however, they feed not only on the wrapper leaves, but also may bore into the developing head. The larvae consume three times their weight in plant material daily. The feeding sites are marked by large accumulations of sticky, wet fecal material.
(§3) Consequently, because of the above factors control of these pests is important.
(§4) Certain molecules disclosed in this document were tested against BAW and CEW using procedures described in the following examples. In the reporting of the results, the “BAW & CL Rating Table” was used (See Table Section).
(§5) Trays were covered with a clear self-adhesive cover and held at 25° C., 14:10 light-dark for five to seven days. Percent mortality was recorded for the larvae in each well; activity in the eight wells was then averaged. The results are indicated in the table entitled “Table ABC: Biological Results” (See Table Section).

Series [2] concerns Cabbage Looper (Trichoplusia ni) ("CL"). The series is described as follows: Bioassay on Cabbage Looper (CL), 128-well diet tray assay, percent mortality. Format: in vivo. The note with it: for CL rating (percent mortality class): Cabbage Looper, 128-well diet tray assay; for pest or weed control at 50 µg/cm2: Trichoplusia ni, read-out: CL.
Description: as §1, §2, §3, §4
Bioassays on Cabbage Looper in CL
as §5

`CC(C)c1ccccc1N1C(=O)CS/C1=N\C(=O)NCCc1ccc(-c2ncn(-c3ccc(OC(F)(F)F)cc3)n2)cc1` [F1, (Z)-1-(3-(2-isopropylphenyl)-4-oxothiazolidin-2-ylidene)-3-(4-(1-(4-(trifluoromethoxy)phenyl)-1H-1,2,4-triazol-3-yl)phenethyl)urea]: the “BAW rating (percent mortality class)” value in series [1] is listed as “A (50-100)”. Moreover, in series [2], the “CL rating (percent mortality class)” value is on record as “A (50-100)”.

Regarding `CC(Cc1ccc(-c2ncn(-c3ccc(OC(F)(F)F)cc3)n2)cc1)NC(=O)NC(=S)Nc1ccccc1C(C)C` (centres unmarked) [F4, N-[2-(propan-2-yl)phenyl]-N′-[1-(4-{1-[4-(trifluoromethoxy)phenyl]-1H-1,2,4-triazol-3-yl}phenyl)propan-2-yl]dicarbonimidothioic diamide], the “BAW rating (percent mortality class)” value in series [1] is on record as “A (50-100)”. Besides, in series [2], the “CL rating (percent mortality class)” value is recorded as “A (50-100)”.

As to `Cc1ccc(C(C)C)c(N2C(=O)CS/C2=N\C(=O)NC(C)Cc2ccc(-c3ncn(-c4ccc(OC(F)(F)F)cc4)n3)cc2)c1` (centres unmarked) [F8, (Z)-1-(3-(2-isopropyl-5-methylphenyl)-4-oxothiazolidin-2-ylidene)-3-(1-(4-(1-(4-(trifluoromethoxy)phenyl)-1H-1,2,4-triazol-3-yl)phenyl)propan-2-yl)urea], the “BAW rating (percent mortality class)” value in series [1] is given as “A (50-100)”. Further, the “CL rating (percent mortality class)” value in series [2] was “A (50-100)”.

Turning to `CC(C)c1ccccc1NC(=S)NC(=O)N/C=C/c1ccc(-c2ncn(-c3ccc(OC(F)(F)F)cc3)n2)cc1` [F11, N-[2-(propan-2-yl)phenyl]-N′-[(E)-2-(4-{1-[4-(trifluoromethoxy)phenyl]-1H-1,2,4-triazol-3-yl}phenyl)ethenyl]dicarbonimidothioic diamide], the “BAW rating (percent mortality class)” value in series [1] is “A (50-100)”. In addition, in series [2], the “CL rating (percent mortality class)” value was “A (50-100)”.

For `CC(C)c1ccccc1N1C(=O)CS/C1=N\C(=O)N/C=C/c1ccc(-c2ncn(-c3ccc(OC(F)(F)F)cc3)n2)cc1` [F12], the “BAW rating (percent mortality class)” value in series [1] was “A (50-100)”. Also, the “CL rating (percent mortality class)” value in series [2] is reported as “A (50-100)”.

As for `C/C(=C\NC(=O)/N=C1\SCC(=O)N1c1ccccc1C(C)C)c1ccc(-c2ncn(-c3ccc(OC(F)(F)F)cc3)n2)cc1` [F13], the “BAW rating (percent mortality class)” value in series [1] was “A (50-100)”. Besides, in series [2], the “CL rating (percent mortality class)” value was “A (50-100)”.

On to `CC(C)c1ccccc1NC(=S)NC(=O)NCc1ccc(-c2ncn(-c3ccc(OC(F)(F)C(F)(F)F)cc3)n2)cc1` [F15, N-(4-{1-[4-(pentafluoroethoxy)phenyl]-1H-1,2,4-triazol-3-yl}benzyl)-N′-[2-(propan-2-yl)phenyl]dicarbonimidothioic diamide], for which the “BAW rating (percent mortality class)” value in series [1] is reported as “A (50-100)”. Further, the “CL rating (percent mortality class)” value in series [2] is “A (50-100)”.

In the case of `Cc1ccc(C(C)C)c(NC(=S)NC(=O)NCc2ccc(-c3ncn(-c4ccc(OC(F)(F)C(F)(F)F)cc4)n3)cc2)c1` [F16, N-[5-methyl-2-(propan-2-yl)phenyl]-N′-(4-{1-[4-(pentafluoroethoxy)phenyl]-1H-1,2,4-triazol-3-yl}benzyl)dicarbonimidothioic diamide], the “BAW rating (percent mortality class)” value in series [1] was “A (50-100)”. In series [2], the “CL rating (percent mortality class)” value was “A (50-100)”.

Consider `CC(C)c1ccccc1N1C(=O)CS/C1=N\C(=O)NCc1ccc(-c2ncn(-c3ccc(OC(F)(F)F)cc3)n2)cc1` [F17, (Z)-1-(3-(2-isopropylphenyl)-4-oxothiazolidin-2-ylidene)-3-(4-(1-(4-(trifluoromethoxy)phenyl)-1H-1,2,4-triazol-3-yl)benzyl)urea], for which, in series [1], the “BAW rating (percent mortality class)” value is given as “A (50-100)”. Also, the “CL rating (percent mortality class)” value in series [2] is given as “A (50-100)”.

Turning to `CC(C)c1ccccc1N1C(=O)CS/C1=N\C(=O)NCc1ccc(-c2ncn(-c3ccc(OC(F)(F)C(F)(F)F)cc3)n2)cc1` [F18, (Z)-1-(3-(2-isopropylphenyl)-4-oxothiazolidin-2-ylidene)-3-(4-(1-(4-(perfluoroethoxy)phenyl)-1H-1,2,4-triazol-3-yl)benzyl)urea], in series [1], the “BAW rating (percent mortality class)” value is listed as “A (50-100)”. In addition, the “CL rating (percent mortality class)” value in series [2] was “A (50-100)”.

For `Cc1ccc(C(C)C)c(N2C(=O)CS/C2=N\C(=O)NCc2ccc(-c3ncn(-c4ccc(OC(F)(F)C(F)(F)F)cc4)n3)cc2)c1` [F19, (Z)-1-(3-(2-isopropyl-5-methylphenyl)-4-oxothiazolidin-2-ylidene)-3-(4-(1-(4-(perfluoroethoxy)phenyl)-1H-1,2,4-triazol-3-yl)benzyl)urea], in series [1], the “BAW rating (percent mortality class)” value is on record as “A (50-100)”. Further, the “CL rating (percent mortality class)” value in series [2] is “A (50-100)”.

As to `CC(C)c1ccccc1NC(=S)NC(=O)NC1CC1c1ccc(-c2ncn(-c3ccc(OC(F)(F)F)cc3)n2)cc1` (centres unmarked) [F22, N-[2-(propan-2-yl)phenyl]-N′-[2-(4-{1-[4-(trifluoromethoxy)phenyl]-1H-1,2,4-triazol-3-yl}phenyl)cyclopropyl]dicarbonimidothioic diamide], the “BAW rating (percent mortality class)” value in series [1] was “A (50-100)”. In addition, the “CL rating (percent mortality class)” value in series [2] was “A (50-100)”.

Regarding `CCCc1ccccc1NC(=S)NC(=O)NC1CC1c1ccc(-c2ncn(-c3ccc(OC(F)(F)F)cc3)n2)cc1` (centres unmarked) [F23], in series [1], the “BAW rating (percent mortality class)” value is recorded as “A (50-100)”. Also, the “CL rating (percent mortality class)” value in series [2] was “A (50-100)”.

`CCc1cccc(C)c1NC(=S)NC(=O)NC1CC1c1ccc(-c2ncn(-c3ccc(OC(F)(F)F)cc3)n2)cc1` (centres unmarked) [F24, N-(2-ethyl-6-methylphenyl)-N′-[2-(4-{1-[4-(trifluoromethoxy)phenyl]-1H-1,2,4-triazol-3-yl}phenyl)cyclopropyl]dicarbonimidothioic diamide]: the “BAW rating (percent mortality class)” value in series [1] is “A (50-100)”. Moreover, the “CL rating (percent mortality class)” value in series [2] is on record as “A (50-100)”.

Take `Cc1cccc(C)c1NC(=S)NC(=O)NC1CC1c1ccc(-c2ncn(-c3ccc(OC(F)(F)F)cc3)n2)cc1` (centres unmarked) [F25]: the “BAW rating (percent mortality class)” value in series [1] is reported as “A (50-100)”. The “CL rating (percent mortality class)” value in series [2] is given as “A (50-100)”.

For the compound `Cc1ccc(C(C)C)c(NC(=S)NC(=O)NCc2ccc(-c3ncn(-c4ccc(OC(F)(F)F)cc4)n3)cc2)c1` [F35, N-[5-methyl-2-(propan-2-yl)phenyl]-N′-(4-{1-[4-(trifluoromethoxy)phenyl]-1H-1,2,4-triazol-3-yl}benzyl)dicarbonimidothioic diamide], the “BAW rating (percent mortality class)” value in series [1] is recorded as “A (50-100)”.

For `Cc1ccc(-n2c(C)cs/c2=N\C(=O)NCc2ccc(-c3ncn(-c4ccc(OC(F)(F)F)cc4)n3)cc2)c(C(C)C)c1` [P20, (Z)-1-(3-(2-isopropyl-4-methylphenyl)-4-methylthiazol-2(3H)-ylidene)-3-(4-(1-(4-(trifluoromethoxy)phenyl)-1H-1,2,4-triazol-3-yl)benzyl)urea], in series [2], the pest or weed control at 50 µg/cm2 is 50 to 100%.

In the case of `Cc1ccc(C(C)C)c(N2C(=O)CS/C2=N\C(=O)NCCc2cccc(-c3ncn(-c4ccc(OC(F)(F)F)cc4)n3)c2)c1` [P81, (Z)-1-(3-(2-isopropyl-5-methylphenyl)-4-oxothiazolidin-2-ylidene)-3-(3-(1-(4-(trifluoromethoxy)phenyl)-1H-1,2,4-triazol-3-yl)phenethyl)urea], the pest or weed control at 50 µg/cm2 in series [2] lay within 50 to 100%.

Regarding `Cc1cccc(C)c1N1C(=O)CS/C1=N\C(=O)NCCCCc1ccc(-c2ncn(-c3ccc(OC(F)(F)F)cc3)n2)cc1` [P152, (Z)-1-(3-(2,6-dimethylphenyl)-4-oxothiazolidin-2-ylidene)-3-(4-(4-(1-(4-(trifluoromethoxy)phenyl)-1H-1,2,4-triazol-3-yl)phenyl)butyl)urea], in series [2], the pest or weed control at 50 µg/cm2 was 50 to 100%.

`CCc1cccc(C)c1N1C(=O)CS/C1=N\C(=O)NCCCCc1ccc(-c2ncn(-c3ccc(OC(F)(F)F)cc3)n2)cc1` [P153, (Z)-1-(3-(2-ethyl-6-methylphenyl)-4-oxothiazolidin-2-ylidene)-3-(4-(4-(1-(4-(trifluoromethoxy)phenyl)-1H-1,2,4-triazol-3-yl)phenyl)butyl)urea]: in series [2], the pest or weed control at 50 µg/cm2 is 50 to 100%.

Turning to `Cc1ccccc1N1C(=O)CS/C1=N\C(=O)NCCCCc1cccc(-c2ncn(-c3ccc(OC(F)(F)F)cc3)n2)c1` [P170, (Z)-1-(4-oxo-3-(o-tolyl)thiazolidin-2-ylidene)-3-(4-(3-(1-(4-(trifluoromethoxy)phenyl)-1H-1,2,4-triazol-3-yl)phenyl)butyl)urea], the pest or weed control at 50 µg/cm2 in series [2] lay within 50 to 100%.

`Cc1ccc(N2C(=O)CS/C2=N\C(=O)NCCCCc2cccc(-c3ncn(-c4ccc(OC(F)(F)F)cc4)n3)c2)c(C(C)C)c1` [P180, (Z)-1-(3-(2-isopropyl-4-methylphenyl)-4-oxothiazolidin-2-ylidene)-3-(4-(3-(1-(4-(trifluoromethoxy)phenyl)-1H-1,2,4-triazol-3-yl)phenyl)butyl)urea]: the pest or weed control at 50 µg/cm2 in series [2] was 50 to 100%.

`CCC(CNC(=O)/N=C1\SCC(=O)N1c1ccc(F)cc1C(C)C)c1ccc(-c2ncn(-c3ccc(OC(F)(F)F)cc3)n2)cc1` (centres unmarked) [P1163, (Z)-1-(3-(4-fluoro-2-isopropylphenyl)-4-oxothiazolidin-2-ylidene)-3-(2-(4-(1-(4-(trifluoromethoxy)phenyl)-1H-1,2,4-triazol-3-yl)phenyl)butyl)urea]: in series [1] (Spodoptera exigua, read-out: BAW), the pest or weed control at 50 µg/cm2 is 50 to 100%.
